Earlier results on 3 substances are cited in publication PMC5852172, “Characterization of antimicrobial and hemolytic properties of short synthetic cationic lipopeptides based on QSAR/QSTR approach” (Amino Acids, 2017).

The test system of data set [1] is Staphylococcus aureus (ATCC 25923). Particulars: minimum inhibitory concentration, CLSI procedure, S. aureus ATCC 25923; ref [1] Greber et al. 2017. From the text: Supplement 726_2017_2530_MOESM1_ESM.docx, table 1: Table 1S. Antimicrobial activity toward Gram-positive strains and toxicity toward human red blood cells. | column: Staphylococcus aureus
A further data set relates to human red blood cells. The conditions noted are these: lowest concentration of lipopeptide inducing 10% hemolysis of human red blood cells; ref [1] Greber et al. 2017. From the text:
Supplement 726_2017_2530_MOESM1_ESM.docx, table 1: Table 1S. Antimicrobial activity toward Gram-positive strains and toxicity toward human red blood cells. | column: Haemolysis

Data set [2] deals with Enterococcus faecalis (ATCC 29212). Particulars: minimum inhibitory concentration, CLSI procedure, E. faecalis ATCC 29212; ref [1] Greber et al. 2017. From the text:
Supplement 726_2017_2530_MOESM1_ESM.docx, table 1: Table 1S. Antimicrobial activity toward Gram-positive strains and toxicity toward human red blood cells. | column: Enterococcus fecalis

Data set [3] relates to S. epidermidis (PCM 2118). Particulars: minimum inhibitory concentration, CLSI procedure, ref [1] Greber et al. 2017. From the text: Supplement 726_2017_2530_MOESM1_ESM.docx, table 1: Table 1S. Antimicrobial activity toward Gram-positive strains and toxicity toward human red blood cells. | column: Staphylococcus epidermidis
In data set [4] the test system is Bacillus subtilis (ATCC 6633). The conditions noted are these: minimum inhibitory concentration, CLSI procedure, B. subtilis ATCC 6633; ref [1] Greber et al. 2017. From the text:
Supplement 726_2017_2530_MOESM1_ESM.docx, table 1: Table 1S. Antimicrobial activity toward Gram-positive strains and toxicity toward human red blood cells. | column: Bacillus subtillis

Regarding C16-KK-NH2, the “Staphylococcus aureus MIC” value in data set [1] is listed as 8 µg/mL. Further, the “Haemolysis MHC” value in the data set with human red blood cells is reported as 256 µg/mL. For the same substance, the “Enterococcus fecalis MIC” value in data set [2] is listed as 8 µg/mL. Moreover, the “Staphylococcus epidermidis MIC” value in data set [3] was 4 µg/mL. Moreover, the “Bacillus subtillis MIC” value in data set [4] is given as 4 µg/mL.
C16-KKK-NH2: the “Staphylococcus aureus MIC” value in data set [1] was 8 µg/mL. Besides, the “Haemolysis MHC” value in the data set on human red blood cells is 32 µg/mL. Also, in data set [2], the “Enterococcus fecalis MIC” value is reported as 16 µg/mL. Moreover, the “Staphylococcus epidermidis MIC” value in data set [3] is recorded as 4 µg/mL. For the same substance, in data set [4], the “Bacillus subtillis MIC” value is listed as 8 µg/mL.
In the case of C16-KKKK-NH2, in data set [1], the “Staphylococcus aureus MIC” value is given as 4 µg/mL. Also, the “Haemolysis MHC” value in the data set with human red blood cells is given as 16 µg/mL. Moreover, the “Enterococcus fecalis MIC” value in data set [2] is 16 µg/mL. Moreover, the “Staphylococcus epidermidis MIC” value in data set [3] is 4 µg/mL. Also, the “Bacillus subtillis MIC” value in data set [4] is reported as 4 µg/mL.
